Results: ChEMBL document CHEMBL1926590, “Discovery of a novel class of non-ATP site DFG-out state p38 inhibitors utilizing computationally assisted virtual fragment-based drug design (vFBDD)” (Bioorg Med Chem Lett, 2011)

What was measured:
[1] = Apparent permeability across basolateral to apical side in human Caco2 cells by UPLC analysis; format: ADME, cell-based; details: Caco-2
[2] = Half life in human hepatocytes; format: ADME, cell-based, Liver, Hepatocyte
[3] = Apparent permeability across apical to basolateral side in human Caco2 cells by UPLC analysis; format: ADME, cell-based; details: Caco-2
[4] = Oral bioavailability in Sprague-Dawley rat at 4 mg/kg; format: ADME, organism-based; details: in vivo

Q: What does the source list for CN(C)CCN1CCN(C(=O)c2cc(C(C)(C)C)sc2NC(=O)Nc2cccc(Cl)c2Cl)CCC1=O?
A: Papp B→A [1]: 5.3 ×10⁻⁶ cm/s; half-life [2]: 5.67 h; Papp A→B [3]: 0.39 ×10⁻⁶ cm/s; bioavailability [4]: 33%
